From paper PMC8176454, “Synthesis and Assessment of Novel Probes for Imaging Tau Pathology in Transgenic Mouse and Rat Models” (ACS Chemical Neuroscience, 2021)

Key:
[1] = biological target: tau (AT8) in AD frontal cortex sections (Homo sapiens, UniProt P10636); assay: Staining of post-mortem AD frontal cortex sections, tau
Protocol: To further validate LM229 as a potential radiotracer for translational research, we investigated its binding to tau aggregates in human globus pallidus/putamen from progressive supranuclear palsy (PSP) subjects (Figure 7) and its selectivity for tau over β-amyloid pathology in AD frontal cortex sections (Figure 8).
In slices from frontal cortex of AD brains, LM229 gave rise to strong signal (Figure 8A), which colocalized with AT8 immunofluorescence (Figure 8B). […]
buffer) for 1 h at room temperature. Following 3 washes in PBS/0.1% Triton X-100, 50 µM LM229 (diluted in 1:1 blocking buffer/ethanol) was then added for 1 h at room temperature. Nuclei were stained with DAPI (0.1mg/ml for 10 min), washed and tissues mounted in FluorSaveTM prior to analysis using fluorescence […]
Binding affinity of all compounds with tau fibrils
Microscale Thermophoresis was first used to screen whether there were interaction between the compounds and tau fibrils. For this procedure 200 µL, 5 µM tau fibrils were mixed with 200 µL, 10 µM NT647-NHS dye and then incubated in dark for 30 minutes. Further dialysis (18 hours, changing the buffer after the first 4 hours) was used to remove the free dye giving a 2.5 µM solution of label led protein. […] With each compound, two concentrations (1µM and 1nM) were used to mix with 100nM tau fibrils and then loaded to the MST instrument to read out the MST data curve. […]

[2] = test system: 3R tau151-391 aggregates in cortical sections from SHR24 rats; assay: Binding to SHR24 transgenic rat brain sections; conditions: SHR24 (3R) vs SHR72 (4R) brain tissue
Text: (§1) Since future PET studies for development of these compounds would require kinetic modeling for their assessment in vivo, we tested their performance in tau transgenic rats. Rat brains and blood volumes are about 6- and 10-fold larger, respectively, than those of mice and thus enable higher resolution imaging and ample volume for repeated blood sampling. We used two transgenic rat lines expressing human-truncated tau comprising the proline-rich region and either three microtubule binding domains (3R tau151-391, SH24)[28] or four microtubule binding domains (4R tau151-391, SHR72).[29] […] However, compared to the SHR24 rat brain sections, there were less inclusions detected, which seems to indicate the compounds have preferential binding toward the three repeat forms of tau in these rat models.
(§2) Fresh frozen rat brain coronal sections (10 μm) were stored on slides at −80 °C until use. Sections were fixed in ice cold acetone for 10 min and air-dried and then rehydrated twice for 5 min with buffer (10 mM PBS with 0.1% Triton X-100) before application of 5% bovine serum albumin for 1 h and two more 5 min buffer washes. Primary monoclonal antibody AT8 (Thermo MN1020, 1:1000) was added overnight at 4 °C, followed by 1 h incubation with a mixture of secondary AlexaFluor555 goat anti-mouse antibody (1:1000) and 50 μM PBB3 or LM229 in 50:50 ethanol/buffer. Following two 5 min washes in buffer, the slides were air-dried and cover-slipped using Fluorsave before analysis. The green autofluorescence of PBB3 and LM229 was visualized using a 488 nm filter and fluorescence of AT8 using a 568 nm filter on a Leica DM6000 microscope.

[3] = biological target: T1, 3R tau151-391 aggregates in cortical sections from SHR24 rats (Homo sapiens, UniProt P10636); assay: Binding to SHR24 transgenic rat brain sections; conditions: 50 μM, colocalization with AT8
T1 construct: tissue AXON Neuroscience; host or cells: brain (cortex) sections of SHR24 transgenic rats
T1 sequence (P10636 151-360 isoform P10636-5): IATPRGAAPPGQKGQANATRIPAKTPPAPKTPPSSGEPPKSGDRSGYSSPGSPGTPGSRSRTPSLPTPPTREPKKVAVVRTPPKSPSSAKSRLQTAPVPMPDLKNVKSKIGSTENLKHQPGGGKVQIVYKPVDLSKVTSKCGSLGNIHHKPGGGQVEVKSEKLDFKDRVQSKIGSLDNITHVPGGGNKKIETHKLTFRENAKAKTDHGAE
Text: as §1, §2

tau (AT8) in AD frontal cortex sections, sequence (P10636 623-708 limits assumed): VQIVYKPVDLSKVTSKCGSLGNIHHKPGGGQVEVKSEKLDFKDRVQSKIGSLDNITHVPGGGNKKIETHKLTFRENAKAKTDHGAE

CNc1ccc(/C=C/C=C/c2nc3cc(F)c(O)cc3s2)cn1 [LM229]
Signal on AD frontal cortex slices colocalized with AT8 [1]: strong signal | Preference between 3R and 4R tau inclusions in rat models [2]: preferential binding toward the 3R tau inclusions | Binding to pathological aggregated tau in SHR24 rat brain sections [3]: bound with similar properties to pathological aggregated tau
